Measured values from patent US20260262643A1, “HERBICIDAL BENZOXAZINES” (FMC CORPORATION, priority 2022, published 2026).

What was measured:
ryegrass, Italian [1] = experiment: Test C preemergence; type: in vivo, Lolium multiflorum
Summary of the method: (§1)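 Soil-applied (pre) and foliar (post, 1–2 leaf, 2–10 cm) sprays; surfactant-containing non-phytotoxic solvent vehicle; loam/sand substrate. Readout: visual % control at 10 d, greenhouse, versus untreated.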

barnyardgrass [2] = experiment: Test C preemergence; type: in vivo, Echinochloa crusgalli
Summary of the method: as §1

pigweed, palmer [3] = experiment: Test C preemergence; type: in vivo, Amaranthus palmeri
Summary of the method: as §1

ryegrass, Italian [4] = experiment: Test C postemergence; type: in vivo, Lolium multiflorum; settings: 10 days, 0 to 100 scale (0 no effect, 100 complete control)
Summary of the method: as §1

kochia [5] = experiment: Test C postemergence; type: in vivo, Bassia scoparia; settings: 10 days, 0 to 100 scale (0 no effect, 100 complete control)
Summary of the method: as §1

wheat [6] = experiment: Test C postemergence; type: in vivo, Triticum aestivum; settings: 10 days, 0 to 100 scale (0 no effect, 100 complete control)
Summary of the method: as §1

kochia [7] = experiment: Test C preemergence; type: in vivo, Bassia scoparia
Summary of the method: as §1

horseweed = experiment: Test C postemergence; type: in vivo, Erigeron canadensis; settings: 10 days, 0 to 100 scale (0 no effect, 100 complete control)
Summary of the method: as §1

sedge, umbrella = experiment: Test D flooded paddy test; type: in vivo, Cyperus difformis; settings: 250 g ai/ha, applied to paddy water, visual rating after 13 to 14 days, scale 0 to 100 (0 no effect, 100 complete control)
Summary of the method: (§2)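 Compounds go straight into paddy water over 2-leaf plants in pots flooded to 3 cm. Greenhouse holding lasts 13 to 14 days. Injury is scored by eye against controls from 0 (none) to 100 (complete control).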

rice = experiment: Test D flooded paddy test; type: in vivo, Oryza sativa; settings: 250 g ai/ha, applied to paddy water, visual rating after 13 to 14 days, scale 0 to 100 (0 no effect, 100 complete control)
Summary of the method: as §2

wheat [8] = experiment: Test C preemergence; type: in vivo, Triticum aestivum
Summary of the method: as §1

green foxtail [9] = experiment: Test C preemergence; type: in vivo, Setaria viridis
Summary of the method: as §1

barnyardgrass [10] = experiment: Test C postemergence; type: in vivo, Echinochloa crusgalli; settings: 10 days, 0 to 100 scale (0 no effect, 100 complete control)
Summary of the method: as §1

blackgrass [11] = experiment: Test C postemergence; type: in vivo, Alopecurus myosuroides; settings: 10 days, 0 to 100 scale (0 no effect, 100 complete control)
Summary of the method: as §1

corn [12] = experiment: Test C preemergence; type: in vivo, Zea mays
Summary of the method: as §1

ragweed [13] = experiment: Test C postemergence; type: in vivo, Ambrosia artemisiifolia; settings: 10 days, 0 to 100 scale (0 no effect, 100 complete control)
Summary of the method: as §1

soybean [14] = experiment: Test C postemergence; type: in vivo, Glycine max; settings: 10 days, 0 to 100 scale (0 no effect, 100 complete control)
Summary of the method: as §1

ducksalad = experiment: Test D flooded paddy test; type: in vivo, Heteranthera limosa; settings: 250 g ai/ha, applied to paddy water, visual rating after 13 to 14 days, scale 0 to 100 (0 no effect, 100 complete control)
Summary of the method: as §2

oat, wild [15] = experiment: Test C preemergence; type: in vivo, Avena fatua
Summary of the method: as §1

green foxtail [16] = experiment: Test C postemergence; type: in vivo, Setaria viridis; settings: 10 days, 0 to 100 scale (0 no effect, 100 complete control)
Summary of the method: as §1

galium = experiment: Test C postemergence; type: in vivo, Galium aparine; settings: 10 days, 0 to 100 scale (0 no effect, 100 complete control)
Summary of the method: as §1

barnyardgrass [17] = experiment: Test D flooded paddy test; type: in vivo, Echinochloa crus-galli; settings: 250 g ai/ha, applied to paddy water, visual rating after 13 to 14 days, scale 0 to 100 (0 no effect, 100 complete control)
Summary of the method: as §2

pigweed, palmer [18] = experiment: Test C postemergence; type: in vivo, Amaranthus palmeri; settings: 10 days, 0 to 100 scale (0 no effect, 100 complete control)
Summary of the method: as §1

soybean [19] = experiment: Test C preemergence; type: in vivo, Glycine max
Summary of the method: as §1

oat, wild [20] = experiment: Test C postemergence; type: in vivo, Avena fatua; settings: 10 days, 0 to 100 scale (0 no effect, 100 complete control)
Summary of the method: as §1

corn [21] = experiment: Test C postemergence; type: in vivo, Zea mays; settings: 10 days, 0 to 100 scale (0 no effect, 100 complete control)
Summary of the method: as §1

ragweed [22] = experiment: Test C preemergence; type: in vivo, Ambrosia artemisiifolia
Summary of the method: as §1

blackgrass [23] = experiment: Test C preemergence; type: in vivo, Alopecurus myosuroides
Summary of the method: as §1

[24] = 500 g ai/ha, preemergence, 0 to 100 scale (0 no effect, 100 complete control)
[25] = Preemergence, 125 g ai/ha, 0 to 100 scale, 0 no effect, 100 complete control

Compound: CCOC[C@H]1CN(C(=O)c2cc(-n3cnc(CC)n3)cc3c2OCCO3)c2cccc(Cl)c2O1 [Compound 387]
- Ryegrass, Italian plant response rating (ryegrass, Italian [1]; [24]): 80
- Plant response rating, Ryegrass, Italian (ryegrass, Italian [1]; [25]): 60
- Barnyardgrass plant response rating (barnyardgrass [2]; [24]): 100
- Plant response rating, Barnyardgrass (barnyardgrass [2]; [25]): 50
- Pigweed, Palmer plant response rating (pigweed, palmer [3]; [24]): 100
- Plant response rating, Pigweed, Palmer (pigweed, palmer [3]; [25]): 100
- Plant response rating, Ryegrass, Italian (ryegrass, Italian [4]; 500 g ai/ha, postemergence): 80
- Plant response rating, Ryegrass, Italian (ryegrass, Italian [4]; Postemergence, 125 g ai/ha): 40
- Plant response rating, Kochia (kochia [5]; 500 g ai/ha, postemergence): 100
- Plant response rating, Kochia (kochia [5]; Postemergence, 125 g ai/ha): 80
- Plant response rating, Wheat (wheat [6]; 500 g ai/ha, postemergence): 30
- Plant response rating, Wheat (wheat [6]; Postemergence, 125 g ai/ha): 10
- Kochia plant response rating (kochia [7]; [24]): 100
- Plant response rating, Kochia (kochia [7]; [25]): 20
- Plant response rating, Horseweed (horseweed; 500 g ai/ha, postemergence): 60
- Plant response rating, Horseweed (horseweed; Postemergence, 125 g ai/ha): 50
- Plant response rating, Sedge, Umbrella (Flood) (sedge, umbrella): 70
- Plant response rating, Rice (Flood) (rice): 10
- Wheat plant response rating (wheat [8]; [24]): 30
- Plant response rating, Wheat (wheat [8]; [25]): 10
- Foxtail, Green plant response rating (green foxtail [9]; [24]): 100
- Plant response rating, Foxtail, Green (green foxtail [9]; [25]): 50
- Plant response rating, Barnyardgrass (barnyardgrass [10]; 500 g ai/ha, postemergence): 60
- Plant response rating, Barnyardgrass (barnyardgrass [10]; Postemergence, 125 g ai/ha): 20
- Plant response rating, Blackgrass (blackgrass [11]; 500 g ai/ha, postemergence): 90
- Plant response rating, Blackgrass (blackgrass [11]; Postemergence, 125 g ai/ha): 60
- Corn plant response rating (corn [12]; [24]): 30
- Plant response rating, Corn (corn [12]; [25]): 0
- Plant response rating, Ragweed (ragweed [13]; 500 g ai/ha, postemergence): 80
- Plant response rating, Ragweed (ragweed [13]; Postemergence, 125 g ai/ha): 70
- Plant response rating, Soybean (soybean [14]; 500 g ai/ha, postemergence): 100
- Plant response rating, Soybean (soybean [14]; Postemergence, 125 g ai/ha): 100
- Plant response rating, Ducksalad (Flood) (ducksalad): 20
- Oat, Wild plant response rating (oat, wild [15]; [24]): 70
- Plant response rating, Oat, Wild (oat, wild [15]; [25]): 40
- Plant response rating, Foxtail, Green (green foxtail [16]; 500 g ai/ha, postemergence): 80
- Plant response rating, Foxtail, Green (green foxtail [16]; Postemergence, 125 g ai/ha): 40
- Plant response rating, Galium (galium; 500 g ai/ha, postemergence): 100
- Plant response rating, Galium (galium; Postemergence, 125 g ai/ha): 100
- Plant response rating, Barnyardgrass (Flood) (barnyardgrass [17]): 25
- Plant response rating, Pigweed, Palmer (pigweed, palmer [18]; 500 g ai/ha, postemergence): 100
- Plant response rating, Pigweed, Palmer (pigweed, palmer [18]; Postemergence, 125 g ai/ha): 90
- Soybean plant response rating (soybean [19]; [24]): 100
- Plant response rating, Soybean (soybean [19]; [25]): 90
- Plant response rating, Oat, Wild (oat, wild [20]; 500 g ai/ha, postemergence): 20
- Plant response rating, Oat, Wild (oat, wild [20]; Postemergence, 125 g ai/ha): 0
- Plant response rating, Corn (corn [21]; 500 g ai/ha, postemergence): 70
- Plant response rating, Corn (corn [21]; Postemergence, 125 g ai/ha): 10
- Ragweed plant response rating (ragweed [22]; [24]): 100
- Plant response rating, Ragweed (ragweed [22]; [25]): 80
- Blackgrass plant response rating (blackgrass [23]; [24]): 20
- Plant response rating, Blackgrass (blackgrass [23]; [25]): 0
